Measurements as given in patent US9089605B2, “Quinone derivatives, pharmaceutical compositions, and uses thereof” (Indiana University Research and Technology Corporation, priority 2007, dated 2015).
“And” between values parts separate entries of the source, which are not always exact repeats. Equal values may be shown once.

Legend:
Ape1 = Ape1 (Homo sapiens, UniProt P27695); assay: Enzymatic redox assay (EMSA, AP-1 DNA binding); assay type: biochemical; details: for IC50: EMSA, reduced Ape1, oxidized nuclear extracts (Hey-C2 cells), AP-1 DNA probe; for activity compared with the original carboxylic acids: hydroxyethylamides of 1 and 43a
cells = assay: Growth inhibition assay (MTS); assay type: cell-based; details: for GI50: MTS, compound treatment 24 or 72 h, read-out: Cell Killing (GI50)
Experimental: Growth inhibitory data was also collected for all the compounds tested in the redox assay. Following the procedure of Fishel et al, cells were aliquoted into 96 well plates at a concentration of 2-4,000 cells/well in triplicate and allowed to adhere overnight. Cells were then treated with compound for either 24 or 72 h. 3-(4-5-Dimethylthiazol-2-yl)-5-(3-carboxymethoxyphenyl)-2-(4-sulfophenyl)-2H-tetrazolium salt (MTS) was added to the cells following compound treatment and the cells were incubated for an additional 4 hours at 37° C. After incubation with MTS the plates were measured for absorbance at 490 nm. The values were standardized to wells containing media alone.

Sequence of Ape1 (P27695 whole entry): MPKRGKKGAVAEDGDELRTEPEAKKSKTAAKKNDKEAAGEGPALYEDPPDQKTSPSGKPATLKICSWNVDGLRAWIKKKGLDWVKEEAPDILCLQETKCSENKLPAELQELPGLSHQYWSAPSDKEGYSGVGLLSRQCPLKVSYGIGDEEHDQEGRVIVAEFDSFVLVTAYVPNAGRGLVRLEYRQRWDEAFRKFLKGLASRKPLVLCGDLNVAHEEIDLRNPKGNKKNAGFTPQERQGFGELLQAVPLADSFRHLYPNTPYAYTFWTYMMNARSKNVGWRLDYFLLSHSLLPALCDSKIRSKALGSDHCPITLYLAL

Row | IC50 (Ape1) | melting point | Structure (SMILES) | GI50 (cells) | activity compared with the original carboxylic acids (Ape1) | cell-based activity superior to the methyl derivative 10b, factor (cells; GI50 ratio)
1 | 2000 nM |  | COC(=O)/C(C)=C\C1=C(Cl)C(=O)c2ccccc2C1=O [Compound Z-44a, Methyl (2Z)-3-(3-chloro-1,4-naphthoquinon-2-yl)-2-methylpropenoate] | 20 µM |  | 
2 |  |  | CCCCCCCCC/C(=C\C1=C(C)C(=O)C(OC)=C(OC)C1=O)C(=O)O [Compound 1, (E)-3-(4,5-dimethoxy-2-methyl-3,6-dioxocyclohexa-1,4-dienyl)-2-nonylpropenoic acid, reference compound] | 35 µM |  | 
3 |  | 64 to 66 °C | CCCCCCCCC/C(=C\C1=C(C)C(=O)c2ccccc2C1=O)C(=O)O [Compound 35c, (E)-3-(3-methyl-1,4-naphthoquinon-2-yl)-2-nonylpropenoic acid] |  |  | 
4 | 10000 nM |  | CCCCCCCCC/C(=C\C1=C(C)C(=O)C(OC)=C(OC)C1=O)C(=O)NCCO [Compound 72, (E)-N-(2-hydroxyethyl)-3-(3,4-dimethoxy-2-methyl-3,6-dioxocyclohexa-1,4-dienyl)-2-nonylpropenamide] | 35 µM | comparable in activity to the original carboxylic acids | 
5 |  | 164 °C (dec.) | CCC/C(=C\C1=C(Cl)C(=O)c2ccccc2C1=O)C(=O)O [Compound 43b, (E)-3-(3-chloro-1,4-naphthoquinon-2-yl)-2-propylpropenoic acid] |  |  | 
6 | 10000 nM | 147 to 148 °C | COCC/C(=C\C1=C(C)C(=O)c2ccccc2C1=O)C(=O)O [Compound 62a, (E)-3-(3-methyl-1,4-naphthoquinon-2-yl)-2-methoxyethylpropenoic acid] | 30 µM |  | 
7 |  | 156 to 160 °C | CCC/C(=C\C1=CC(=O)c2ccccc2C1=O)C(=O)O [Compound 30b, (E)-3-(1,4-naphthoquinon-2-yl)-2-propylpropenoic acid] |  |  | 
8 | 500 nM | 205 °C (dec.) | COC1=C(/C=C(\C)C(=O)O)C(=O)c2ccccc2C1=O [Compound 55, (E)-3-(3-methoxy-1,4-naphthoquinon-2-yl)-2-methylpropenoic acid] | 40 µM |  | 
9 | 15000 nM | 195 to 196 °C | CC1=C(/C=C(\C)C(=O)O)C(=O)c2ccccc2C1=O [Compound 35a, (E)-3-(3-methyl-1,4-naphthoquinon-2-yl)-2-methylpropenoic acid] | 45 µM |  | 
10 |  | 95 to 99 °C | CCC/C(=C\C1=C(C)C(=O)C(OC)=C(OC)C1=O)C(=O)O [Compound 10d, (E)-3-(4,5-dimethoxy-2-methyl-3,6-dioxocyclohexa-1,4-dienyl)-2-propylpropenoic acid] |  |  | 
11 | 1500 nM | 166 to 169 °C | C/C(=C/C1=C(Cl)C(=O)c2ccccc2C1=O)C(=O)O [Compound Z-43a, (2Z)-3-(3-chloro-1,4-naphthoquinon-2-yl)-2-methylpropenoic acid] | 30 µM |  | 
12 | 5000 nM |  | CC(CC1=C(Br)C(=O)c2ccccc2C1=O)C(=O)O (racemic) [Compound 69b, (2R/S)-3-(3-bromo-1,4-naphthoquinon-2-yl)-2-methylpropionic acid] | 15 µM |  | 
13 |  | 145 °C (dec.) | CCC/C(=C\C1=C(Br)C(=O)c2ccccc2C1=O)C(=O)O [Compound 39b, (E)-3-(3-bromo-1,4-naphthoquinon-2-yl)-2-propylpropenoic acid] |  |  | 
14 | 1000 nM | 195 to 196 °C | CSC1=C(/C=C(\C)C(=O)O)C(=O)c2ccccc2C1=O [Compound 58, (E)-3-(3-methylsulfanyl-1,4-naphthoquinon-2-yl)-2-methylpropenoic acid] | 30 µM |  | 
15 |  | 124 to 131 °C | CC/C(=C\C1=C(C)C(=O)C(OC)=C(OC)C1=O)C(=O)O [Compound 10c, (E)-3-(4,5-dimethoxy-2-methyl-3,6-dioxocyclohexa-1,4-dienyl)-2-ethylpropenoic acid] |  |  | 
16 | 3000 to 15000 nM and 15000 nM | 54 to 55 °C | CCCC/C(=C\C1=C(C)C(=O)C(OC)=C(OC)C1=O)C(=O)O [Compound 10e, (E)-3-(4,5-dimethoxy-2-methyl-3,6-dioxocyclohexa-1,4-dienyl)-2-butylpropenoic acid] | 85 µM |  | 
17 | 40000 nM |  | COC1=C(OC)C(=O)C(/C=C/C(=O)O)=C(C)C1=O [Compound 10a, (E)-3-(4,5-dimethoxy-2-methyl-3,6-dioxocyclohexa-1,4-dienyl)-propenoic acid] | 250 µM |  | 
18 | 4000 nM |  | CC1(C(=O)O)OC1C1=C(Cl)C(=O)c2ccccc2C1=O (mixture of isomers) [Compound 71, 3-(3-chloro-1,4-naphthoquinon-2-yl)-2-epoxy-2-methylpropionic acid] | 10 µM |  | 
19 | 500 nM | 168 to 172 °C | COCC/C(=C\C1=C(Br)C(=O)c2ccccc2C1=O)C(=O)O [Compound 62b, (E)-3-(3-bromo-1,4-naphthoquinon-2-yl)-2-methoxyethylpropenoic acid] | 25 µM |  | 
20 | 10000 nM | 104 to 106 °C | COCC/C(=C\C1=C(C)C(=O)C(OC)=C(OC)C1=O)C(=O)O [Compound 64, (E)-3-(4,5-dimethoxy-2-methyl-3,6-dioxocyclohexa-1,4-dienyl)-2-methoxyethylpropenoic acid] | 200 µM |  | 
21 | 2500 nM | 183 to 185 °C | COC1=C(OC)C(=O)C(/C=C(\C)C(=O)O)=C(Cl)C1=O [Compound 23, (E)-3-(2-chloro-4,5-dimethoxy-3,6-dioxocyclohexa-1,4-dienyl)-2-methylpropenoic acid] | 45 µM |  | 3
22 | 1000 nM | 229 to 230 °C | C/C(=C\C1=C(Cl)C(=O)c2ccccc2C1=O)C(=O)O [Compound 43a, (E)-3-(3-chloro-1,4-naphthoquinon-2-yl)-2-methylpropenoic acid] | 15 µM |  | 
23 | 2500 nM |  | C/C(=C\C1=CC(=O)c2ccccc2C1=O)C(=O)O [Compound 30a, (E)-3-(1,4-naphthoquinon-2-yl)-2-methylpropenoic acid] | 20 µM |  | 
24 | 1000 nM |  | COC(=O)/C(C)=C/C1=C(Cl)C(=O)c2ccccc2C1=O [Compound E-44a] | 17.5 µM |  | 
25 | 4000 nM |  | C/C(=C\C1=C(F)C(=O)c2ccccc2C1=O)C(=O)O [Compound 52, (E)-3-(3-fluoro-1,4-naphthoquinon-2-yl)-2-methylpropenoic acid] | 50 µM |  | 
26 | 2000 nM |  | C/C(=C\C1=C(Br)C(=O)c2ccccc2C1=O)C(=O)O [Compound 39a, (E)-3-(3-bromo-1,4-naphthoquinon-2-yl)-2-methylpropenoic acid] | 12.5 µM |  | 
27 |  |  | C/C(=C\C1=C(Cl)C(=O)c2ccccc2C1=O)C(=O)NCCO [Compound 73, (E)-N-(2-hydroxyethyl)-3-(3-chloro-1,4-dioxonaphthoquinon-2-yl)-2-methylpropenamide] | 7.5 µM | comparable in activity to the original carboxylic acids | 

Row | Structure (SMILES) | IC50 (Ape1) | melting point | GI50 (cells) | activity compared with the original carboxylic acids (Ape1) | cell-based activity superior to the methyl derivative 10b, factor (cells; GI50 ratio)
28 | C[C@@H]1NC(=O)N[C@@H]1CCCCCC(=O)NCCCCCCNC(=O)OC(C)(C)C (hydrate or solvate) [Compound 111, N—(N′-tert-butoxycarbonyl-6-aminohexyl)-6-[(4R,5S)-5-methyl-imidazolidin-2-on-4-yl]hexanamide] |  | 85 to 87 °C |  |  | 
